Target: T1, Tumor necrosis factor receptor superfamily member 1A (Homo sapiens, UniProt P19438)
T1 sequence (P19438 whole entry): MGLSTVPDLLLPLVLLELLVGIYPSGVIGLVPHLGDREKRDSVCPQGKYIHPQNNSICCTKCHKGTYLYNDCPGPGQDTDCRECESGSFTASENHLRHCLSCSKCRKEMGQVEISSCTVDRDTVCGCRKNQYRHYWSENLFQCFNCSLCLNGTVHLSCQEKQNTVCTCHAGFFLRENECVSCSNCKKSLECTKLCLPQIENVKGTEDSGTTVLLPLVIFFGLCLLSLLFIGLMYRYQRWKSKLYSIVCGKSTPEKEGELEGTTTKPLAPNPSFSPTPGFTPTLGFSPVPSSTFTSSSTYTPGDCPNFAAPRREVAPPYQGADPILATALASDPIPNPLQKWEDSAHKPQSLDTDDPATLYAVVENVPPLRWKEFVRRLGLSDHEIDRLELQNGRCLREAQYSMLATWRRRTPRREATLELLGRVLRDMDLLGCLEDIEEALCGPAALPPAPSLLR
Assay: ChEBML_224214
Source text: Inhibition of TNF-alpha-induced VCAM-1 expression

| Compound | IC50 |
| --- | --- |
| COc1ccc(-c2cccs2)cc1/C=C/C(=O)c1ccc(OCc2ccncc2)c(OC)c1 [(E)-1-[3-Methoxy-4-(pyridin-4-ylmethoxy)-phenyl]-3-(2-methoxy-5-thiophen-2-yl-phenyl)-propenone] | 4 µM |
| COc1ccc(COc2c(OC)cc(C(=O)/C=C/c3cc(OC)c(OC)c(OC)c3)cc2OC)cc1OC [(E)-1-[4-(3,4-Dimethoxy-benzyloxy)-3,5-dimethoxy-phenyl]-3-(3,4,5-trimethoxy-phenyl)-propenone] | 2 µM |
| COc1ccc(COc2ccc(C(=O)/C=C/c3cc(OC)c(OC)c(OC)c3)cc2OC)cc1OC [(E)-1-[4-(3,4-Dimethoxy-benzyloxy)-3-methoxy-phenyl]-3-(3,4,5-trimethoxy-phenyl)-propenone] | 2 µM |
| COc1ccc(-c2cccs2)cc1/C=C/C(=O)c1ccc(OCc2ccc(N)cc2)c(OC)c1 [(E)-1-[4-(4-Amino-benzyloxy)-3-methoxy-phenyl]-3-(2-methoxy-5-thiophen-2-yl-phenyl)-propenone] | 7 µM |
| COc1cc(/C=C/C(=O)c2cc(OC)c(OCc3ccc4c(c3)OCO4)c(OC)c2)cc(OC)c1OC [(E)-1-[4-(Benzo[1,3]dioxol-5-ylmethoxy)-3,5-dimethoxy-phenyl]-3-(3,4,5-trimethoxy-phenyl)-propenone] | 3 µM |
| COc1cc(/C=C/C(=O)c2cc(OC)c(OCc3ccco3)c(OC)c2)cc(OC)c1OC [(E)-1-[4-(Furan-2-ylmethoxy)-3,5-dimethoxy-phenyl]-3-(3,4,5-trimethoxy-phenyl)-propenone] | 3 µM |
| COc1cc(OC)c(-c2cccs2)cc1/C=C/C(=O)c1ccc(OC)c(OC)c1OC [(E)-3-(2,4-Dimethoxy-5-thiophen-2-yl-phenyl)-1-(2,3,4-trimethoxy-phenyl)-propenone] | 2 µM |
| COc1cc(OC)c(C(=O)/C=C/c2cc(-c3cccs3)ccc2OC)c(OC)c1 [(E)-3-(2-Methoxy-5-thiophen-2-yl-phenyl)-1-(2,4,6-trimethoxy-phenyl)-propenone] | 3 µM |
| COc1ccc(-c2cccs2)cc1/C=C/C(=O)c1cc(OC)c(OC)c(OC)c1 [(E)-3-(2-Methoxy-5-thiophen-2-yl-phenyl)-1-(3,4,5-trimethoxy-phenyl)-propenone] | 3 µM |
| COc1ccc(-c2cccs2)cc1/C=C/C(=O)c1ccccc1 [(E)-3-(2-Methoxy-5-thiophen-2-yl-phenyl)-1-phenyl-propenone] | 5 µM |
| COc1cc(-c2cccs2)ccc1C(=O)/C=C/c1ccc(F)c(F)c1 [(E)-3-(3,4-Difluoro-phenyl)-1-(2-methoxy-4-thiophen-2-yl-phenyl)-propenone] | 2 µM |
| COc1ccc(C(=O)/C=C/c2ccc(OC)c(OC)c2)cc1 [(E)-3-(3,4-Dimethoxy-phenyl)-1-(4-methoxy-phenyl)-propenone] | 15 µM |
| CCOc1cc(OCC)c(C(=O)/C=C/c2cc(Br)c(OC)c(OC)c2)cc1OCC [(E)-3-(3-Bromo-4,5-dimethoxy-phenyl)-1-(2,4,5-triethoxy-phenyl)-propenone] | 15 µM |
| COc1cc(OC)c(C(=O)/C=C/c2cc(Br)c(OC)c(OC)c2)cc1OC [(E)-3-(3-Bromo-4,5-dimethoxy-phenyl)-1-(2,4,5-trimethoxy-phenyl)-propenone] | 2 µM |
| COc1cc(/C=C/C(=O)c2cc(OC)c(OC)c(OC)c2)cc(Br)c1OC [(E)-3-(3-Bromo-4,5-dimethoxy-phenyl)-1-(3,4,5-trimethoxy-phenyl)-propenone] | 4 µM |
| CCOc1ccc(/C=C/C(=O)c2cc(-c3cccs3)ccc2OC)cc1F [(E)-3-(4-Ethoxy-3-fluoro-phenyl)-1-(2-methoxy-5-thiophen-2-yl-phenyl)-propenone] | 4 µM |
| COc1cc(C(=O)/C=C/c2ccc(-c3cccs3)cc2)cc(OC)c1OC [(E)-3-(4-Thiophen-2-yl-phenyl)-1-(3,4,5-trimethoxy-phenyl)-propenone] | 6 µM |
| COc1cc(OC)c(-c2cc3ccccc3s2)cc1/C=C/C(=O)c1ccc(OC)c(OC)c1OC [(E)-3-(5-Benzo[b]thiophen-2-yl-2,4-dimethoxy-phenyl)-1-(2,3,4-trimethoxy-phenyl)-propenone] | 8 µM |

| Compound | IC50 |
| --- | --- |
| COc1cc(OC)c(-c2cc3ccccc3s2)cc1/C=C/C(=O)c1cc(OC)c(OC)c(OC)c1 [(E)-3-(5-Benzo[b]thiophen-2-yl-2,4-dimethoxy-phenyl)-1-(3,4,5-trimethoxy-phenyl)-propenone] | 5 µM |
| COc1cc(OC)c(-c2cc3ccccc3s2)cc1/C=C/C(=O)c1ccc(OC)c(OC)c1 [(E)-3-(5-Benzo[b]thiophen-2-yl-2,4-dimethoxy-phenyl)-1-(3,4-dimethoxy-phenyl)-propenone] | 11 µM |
| COc1cc(OC)c(-c2cc3ccccc3s2)cc1/C=C/C(=O)c1cc(OC)c(OCC2CC2)c(OC)c1 [(E)-3-(5-Benzo[b]thiophen-2-yl-2,4-dimethoxy-phenyl)-1-(4-cyclopropylmethoxy-3,5-dimethoxy-phenyl)-propenone] | > 50 µM |
| COc1cc(OC)c(-c2cc3ccccc3s2)cc1/C=C/C(=O)c1cc(OC)c(O)c(OC)c1 [(E)-3-(5-Benzo[b]thiophen-2-yl-2,4-dimethoxy-phenyl)-1-(4-hydroxy-3,5-dimethoxy-phenyl)-propenone] | 1 µM |
| COc1cc(OC)c(-c2cc3ccccc3s2)cc1/C=C/C(=O)c1ccc(NC2OC(CO)C(O)C(O)C2O)cc1 (stereo unspecified) [(E)-3-(5-Benzo[b]thiophen-2-yl-2,4-dimethoxy-phenyl)-1-[4-(3,4,5-trihydroxy-6-hydroxymethyl-tetrahydro-pyran-2-ylamino)-phenyl]-propenone] | 17 µM |
| COc1ccc(-c2cc3ccccc3s2)cc1/C=C/C(=O)c1cc(OC)c(OC)c(OC)c1 [(E)-3-(5-Benzo[b]thiophen-2-yl-2-methoxy-phenyl)-1-(3,4,5-trimethoxy-phenyl)-propenone] | 2 µM |
| COc1ccc(-c2cc3ccccc3s2)cc1/C=C/C(=O)c1ccc(OC)c(OC)c1 [(E)-3-(5-Benzo[b]thiophen-2-yl-2-methoxy-phenyl)-1-(3,4-dimethoxy-phenyl)-propenone] | 2 µM |
| COc1ccc(C(=O)/C=C/c2cc(-c3cc4ccccc4s3)ccc2OC)cc1 [(E)-3-(5-Benzo[b]thiophen-2-yl-2-methoxy-phenyl)-1-(4-methoxy-phenyl)-propenone] | 3 µM |
| COc1cc(OC)c(/C=C/C(=O)c2cc(OC)c(OC)c(OC)c2)cc1Br [(E)-3-(5-Bromo-2,4-dimethoxy-phenyl)-1-(3,4,5-trimethoxy-phenyl)-propenone] | 2 µM |
| COc1ccc(Br)cc1/C=C/C(=O)c1cc(OC)c(OC)c(OC)c1 [(E)-3-(5-Bromo-2-methoxy-phenyl)-1-(3,4,5-trimethoxy-phenyl)-propenone] | 1 µM |
| COc1ccc(-c2cc(C)cs2)cc1/C=C/C(=O)c1cc(OC)c(OC)c(OC)c1 [(E)-3-[2-Methoxy-5-(4-methyl-thiophen-2-yl)-phenyl]-1-(3,4,5-trimethoxy-phenyl)-propenone] | 2 µM |
| COc1ccc(-c2ccc(C)s2)cc1/C=C/C(=O)c1cc(OC)c(OC)c(OC)c1 [(E)-3-[2-Methoxy-5-(5-methyl-thiophen-2-yl)-phenyl]-1-(3,4,5-trimethoxy-phenyl)-propenone] | 2 µM |
| COc1cc(C(=O)C=Cc2cc(OC)c(OC)c(-c3ccc(C(C)=O)s3)c2)cc(OC)c1OC [(E)-3-[3-(5-Acetyl-thiophen-2-yl)-4,5-dimethoxy-phenyl]-1-(3,4,5-trimethoxy-phenyl)-propenone] | 3 µM |
| O=C(/C=C/c1ccccc1)c1ccccc1 [Chalcone, 13] | 23 µM |
| COc1cc(OCC(=O)O)c(/C=C/C(=O)c2ccccc2)cc1-c1cc2ccccc2s1 [[4-Benzo[b]thiophen-2-yl-5-methoxy-2-((E)-3-oxo-3-phenyl-propenyl)-phenoxy]-acetic acid] | 1 µM |
| COc1ccc(-c2cccs2)cc1/C=C/C(=O)c1cc(OC)c(OCC(=O)O)c(OC)c1 [{2,6-Dimethoxy-4-[(E)-3-(2-methoxy-5-thiophen-2-yl-phenyl)-acryloyl]-phenoxy}-acetic acid] | 1 µM |
| COc1cc(C(=O)/C=C/c2cc(OC)c(OC)c(-c3cccs3)c2)cc(OC)c1OCC(=O)O [{4-[(E)-3-(3,4-Dimethoxy-5-thiophen-2-yl-phenyl)-acryloyl]-2,6-dimethoxy-phenoxy}-acetic acid] | 1 µM |
| COc1cc(OC)c(-c2cc3ccccc3s2)cc1/C=C/C(=O)c1ccc(SCC(=O)O)cc1 [{4-[(E)-3-(5-Benzo[b]thiophen-2-yl-2,4-dimethoxy-phenyl)-acryloyl]-phenylsulfanyl}-acetic acid] | 1 µM |
